Source: patent publication US6878725B2, “Serine protease inhibitors” (Eli Lilly and Company, priority 2001, dated 2005)

SMILES	melting point
Cl.O=C(N[C@@H](C(=O)N1CCC(Nc2ccncc2)CC1)c1ccccc1)c1ccc2cc[nH]c2c1	205 to 215 °C
O=C(N[C@@H](C(=O)N1CCC(Nc2ccccn2)CC1)c1ccccc1)c1ccc2cc[nH]c2c1 [Example 39, 1-(Indole-6-carbonyl-D-phenylglycinyl)-4-(pyridin-2-ylamino)piperidine]	128 to 134 °C
